# In ChEMBL document CHEMBL1201862, “PubChem BioAssay data set” (2004):
#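 Grown in 96-well plates, cells were treated for 48 hours with each compound at five concentrations. Insufficient inhibition: endpoint recorded as highest concentration tested. Abbreviation: GI50, concentration required for 50% inhibition of growth.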 The source made the active and inactive calls. No stated cut-off is given here; in the data, active = GI50 up to about 1.1 µM and inactive = higher.
# How the values were obtained:
# Assay in all cases: inhibition of tumour cell growth, NCI panel, 48 h
# [1] = system: UO-31
# [2] = system: EKVX
# [3] = system: SNB-19
# [4] = system: SF-268
# [5] = system: HCT-116
# [6] = system: SF-295
# [7] = system: MOLT-4
# [8] = system: OVCAR-5
# [9] = system: SF-539
# [10] = system: RPMI-8226
# [11] = system: 786-0
# [12] = system: UACC-257
# [13] = system: ACHN
# [14] = system: UACC-62
# [15] = system: SK-OV-3
# [16] = system: SW-620
# [17] = system: MCF7
# [18] = system: Malme-3M
# [19] = system: HOP-62
# [20] = system: Hs-578T
# [21] = system: SNB-75
# [22] = system: HCC 2998
# [23] = system: SN12C
# [24] = system: U-251
# [25] = system: T47D
# [26] = system: NCI-H522
# [27] = system: BT-549
# [28] = system: COLO 205
# [29] = system: CAKI-1
# [30] = system: SK-MEL-2
# [31] = system: A549
# [32] = system: MDA-N
# [33] = system: NCI-H23
# [34] = system: TK-10
# [35] = system: NCI-H460
# [36] = system: K562
# [37] = system: MDA-MB-435
# [38] = system: CCRF-CEM
# [39] = system: MDA-MB-231
# [40] = system: OVCAR-3
# [41] = system: HCT-15
# [42] = system: OVCAR-8
# [43] = system: KM12
# [44] = system: HT-29
# [45] = system: OVCAR-4
# [46] = system: RXF 393
# [47] = system: SK-MEL-28
# [48] = system: IGROV-1
# [49] = system: HL-60
# [50] = system: LOX IMVI
# [51] = system: NCI/ADR-RES
# [52] = system: PC-3
# [53] = system: SK-MEL-5
# [54] = system: SR
# [55] = system: HOP-92
# [56] = system: M14
# [57] = system: A498
# [58] = system: NCI-H226
# [59] = system: DU-145
smiles,measurement,setting,value
CC1(C)C=Cc2c(cc(O)c3c(=O)c4cc(Cl)ccc4[nH]c23)O1,GI50,[1],2.16 µM (inactive)
same,GI50,[2],0.469 µM (active)
same,GI50,[3],2.62 µM (inactive)
same,GI50,[4],3.86 µM (inactive)
same,GI50,[5],2.99 µM (inactive)
same,GI50,[6],2.84 µM (inactive)
same,GI50,[7],2.54 µM (inactive)
same,GI50,[8],1.91 µM (inactive)
same,GI50,[9],4.13 µM (inactive)
same,GI50,[10],2.29 µM (inactive)
same,GI50,[11],3.84 µM (inactive)
same,GI50,[12],2.87 µM (inactive)
same,GI50,[13],2.42 µM (inactive)
same,GI50,[14],2.58 µM (inactive)
same,GI50,[15],2.72 µM (inactive)
same,GI50,[16],3.55 µM (inactive)
same,GI50,[17],2.88 µM (inactive)
same,GI50,[18],2.24 µM (inactive)
same,GI50,[19],4.08 µM (inactive)
same,GI50,[20],0.161 µM (active)
same,GI50,[21],4.03 µM (inactive)
same,GI50,[22],3.62 µM (inactive)
same,GI50,[23],3.24 µM (inactive)
same,GI50,[24],2.74 µM (inactive)
same,GI50,[25],3.69 µM (inactive)
same,GI50,[26],3.29 µM (inactive)
same,GI50,[27],2.63 µM (inactive)
same,GI50,[28],4.43 µM (inactive)
same,GI50,[29],3.94 µM (inactive)
same,GI50,[30],2.69 µM (inactive)
same,GI50,[31],3.1 µM (inactive)
same,GI50,[32],2.62 µM (inactive)
same,GI50,[33],2.3 µM (inactive)
same,GI50,[34],4.5 µM (inactive)
same,GI50,[35],1.98 µM (inactive)
same,GI50,[36],1.81 µM (inactive)
same,GI50,[37],3.35 µM (inactive)
same,GI50,[38],3.08 µM (inactive)
same,GI50,[39],3.33 µM (inactive)
same,GI50,[40],0.469 µM (active)
same,GI50,[41],3.27 µM
same,GI50,[42],3.98 µM (inactive)
same,GI50,[43],2.2 µM (inactive)
same,GI50,[44],2.4 µM (inactive)
same,GI50,[45],3.24 µM (inactive)
same,GI50,[46],3.89 µM (inactive)
same,GI50,[47],4 µM (inactive)
same,GI50,[48],5.31 µM (inactive)
same,GI50,[49],2.84 µM (inactive)
same,GI50,[50],3.29 µM (inactive)
same,GI50,[51],1.68 µM (inactive)
same,GI50,[52],2.04 µM (inactive)
same,GI50,[53],1.92 µM (inactive)
same,GI50,[54],3.24 µM (inactive)
same,GI50,[55],2.52 µM (inactive)
COC(=O)C(Cc1nc2ccccc2nc1O)C(=O)C(=O)Nc1cc(C(F)(F)F)ccc1Cl (stereo not drawn),GI50,[56],16.7 µM (inactive)
same,GI50,[1],15.5 µM (inactive)
same,GI50,[2],15 µM (inactive)
same,GI50,[4],14.2 µM (inactive)
same,GI50,[5],18.2 µM (inactive)
same,GI50,[6],28.3 µM (inactive)
same,GI50,[7],6.17 µM (inactive)
same,GI50,[8],19.4 µM (inactive)
same,GI50,[57],24 µM (inactive)
same,GI50,[10],7.01 µM (inactive)
same,GI50,[11],12.6 µM (inactive)
same,GI50,[12],28.3 µM (inactive)
same,GI50,[13],12.1 µM (inactive)
same,GI50,[14],18.2 µM (inactive)
same,GI50,[15],35.3 µM (inactive)
same,GI50,[16],13.8 µM (inactive)
same,GI50,[17],14.4 µM (inactive)
same,GI50,[18],14.1 µM (inactive)
same,GI50,[19],17.4 µM (inactive)
same,GI50,[20],12.7 µM (inactive)
same,GI50,[21],18.6 µM (inactive)
same,GI50,[22],13.6 µM (inactive)
same,GI50,[23],20.5 µM (inactive)
same,GI50,[24],9.91 µM (inactive)
same,GI50,[25],15.1 µM (inactive)
same,GI50,[26],3.87 µM (inactive)
same,GI50,[27],14.9 µM (inactive)
same,GI50,[29],15.4 µM (inactive)
same,GI50,[30],16.1 µM (inactive)
same,GI50,[31],69.2 µM (inactive)
same,GI50,[32],25.9 µM (inactive)
same,GI50,[33],14.2 µM (inactive)
same,GI50,[34],21.1 µM (inactive)
same,GI50,[35],19 µM (inactive)
same,GI50,[36],12 µM (inactive)
same,GI50,[37],19.4 µM (inactive)
same,GI50,[38],1.51 µM (inactive)
same,GI50,[39],22.2 µM (inactive)
same,GI50,[40],12.8 µM (inactive)
same,GI50,[41],13.8 µM
same,GI50,[42],12.1 µM (inactive)
same,GI50,[43],14.5 µM (inactive)
same,GI50,[44],15.3 µM (inactive)
same,GI50,[45],12.1 µM (inactive)
same,GI50,[58],18 µM (inactive)
same,GI50,[46],13.8 µM (inactive)
same,GI50,[47],25.4 µM (inactive)
same,GI50,[48],12.2 µM (inactive)
same,GI50,[49],10.3 µM (inactive)
same,GI50,[50],16.2 µM (inactive)
same,GI50,[51],15.6 µM (inactive)
same,GI50,[52],17 µM (inactive)
same,GI50,[53],20.4 µM (inactive)
same,GI50,[54],4.58 µM (inactive)
same,GI50,[55],11.6 µM (inactive)
COc1ccc(CCN2CCc3c(C)c(C#N)c4nc5ccccc5n4c32)cc1OC,GI50,[56],> 100 µM (inactive)
same,GI50,[1],36.3 µM (inactive)
same,GI50,[3],> 100 µM (inactive)
same,GI50,[4],35.1 µM (inactive)
same,GI50,[5],28.7 µM (inactive)
same,GI50,[6],42.4 µM (inactive)
same,GI50,[8],> 100 µM (inactive)
same,GI50,[9],49.9 µM (inactive)
same,GI50,[57],54.6 µM (inactive)
same,GI50,[11],56.8 µM (inactive)
same,GI50,[12],33.2 µM (inactive)
same,GI50,[13],64.6 µM (inactive)
same,GI50,[14],24.2 µM (inactive)
same,GI50,[15],81.3 µM (inactive)
same,GI50,[16],26.6 µM (inactive)
same,GI50,[17],18 µM (inactive)
same,GI50,[18],28.7 µM (inactive)
same,GI50,[19],33.7 µM (inactive)
same,GI50,[20],12.9 µM (inactive)
same,GI50,[21],24.8 µM (inactive)
same,GI50,[22],40.7 µM (inactive)
same,GI50,[23],34.2 µM (inactive)
same,GI50,[24],15.6 µM (inactive)
same,GI50,[26],21.4 µM (inactive)
same,GI50,[27],27.2 µM (inactive)
same,GI50,[28],30.3 µM (inactive)
same,GI50,[59],81.7 µM (inactive)
same,GI50,[29],> 100 µM (inactive)
same,GI50,[30],16.3 µM (inactive)
same,GI50,[31],45.9 µM (inactive)
same,GI50,[32],19.1 µM (inactive)
same,GI50,[33],45.3 µM (inactive)
same,GI50,[34],64.1 µM (inactive)
same,GI50,[35],20.2 µM (inactive)
same,GI50,[36],15.6 µM (inactive)
same,GI50,[37],14.3 µM (inactive)
same,GI50,[38],35.4 µM (inactive)
same,GI50,[39],19.1 µM (inactive)
same,GI50,[40],27.2 µM (inactive)
same,GI50,[41],29 µM
same,GI50,[42],35.3 µM (inactive)
same,GI50,[44],32.6 µM (inactive)
same,GI50,[45],26 µM (inactive)
same,GI50,[58],27.5 µM (inactive)
same,GI50,[46],30.8 µM (inactive)
same,GI50,[47],39.5 µM (inactive)
same,GI50,[48],37.2 µM (inactive)
same,GI50,[49],33.9 µM (inactive)
same,GI50,[50],37.7 µM (inactive)
same,GI50,[51],27.4 µM (inactive)
same,GI50,[52],25.9 µM (inactive)
same,GI50,[53],19.6 µM (inactive)
same,GI50,[55],22.8 µM (inactive)
